From US7792665B2, “Method for designing a compound based on the three dimensional structure of phosphoinositide dependent protein kinase 1 (PDK1)” (Medical Research Council, priority 2002, dated 2010) come the findings set out here.

The target of assay [1] is S6K-pHM, phosphopeptide comprising the hydrophobic motif of S6K1. Nature of the assay: SPR (BiaCore), against PIFtide. For orientation: Surface plasmon resonance follows binding to a sensor surface in real time, without labels.
Assay [2] has the same target. Nature of the assay: SPR (BiaCore), dissociation phase.
The target is the same in assay [3]. Nature of the assay: SPR (BiaCore), rounded value.
For assay [4] the target is unchanged. Nature of the assay: SPR (BiaCore 3000), biotinylated S6K-pHM on SA chip, GST-PDK1 injected at 2-2150 nM, steady state, apparent Kd.
Assay [5] shares this target. Nature of the assay: SPR (BiaCore), against wild type PDK1.
Assay [6] shares this target. Nature of the assay: SPR (BiaCore), maximal response obtained empirically.
The target in the next assay is T1, PDK1 (Homo sapiens, UniProt O15530).
T1 sequence (O15530 1-556): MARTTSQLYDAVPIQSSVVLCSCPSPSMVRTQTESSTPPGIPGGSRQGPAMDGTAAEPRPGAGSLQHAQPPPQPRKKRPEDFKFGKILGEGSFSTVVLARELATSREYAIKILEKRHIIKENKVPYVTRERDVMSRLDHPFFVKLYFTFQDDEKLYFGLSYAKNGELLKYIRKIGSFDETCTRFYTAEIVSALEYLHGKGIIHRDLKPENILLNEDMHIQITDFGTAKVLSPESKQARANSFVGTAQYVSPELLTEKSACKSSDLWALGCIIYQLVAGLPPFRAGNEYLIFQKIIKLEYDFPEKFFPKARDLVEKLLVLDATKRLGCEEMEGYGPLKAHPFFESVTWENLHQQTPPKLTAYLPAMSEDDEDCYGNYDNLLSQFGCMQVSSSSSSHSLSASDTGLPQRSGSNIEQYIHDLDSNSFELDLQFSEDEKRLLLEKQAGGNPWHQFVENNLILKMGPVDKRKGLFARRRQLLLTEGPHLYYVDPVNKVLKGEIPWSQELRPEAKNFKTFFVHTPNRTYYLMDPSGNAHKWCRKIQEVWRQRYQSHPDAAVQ
Nature of the assay: PDK1 protein kinase assay with PDK1tide substrate and [γ-32P]ATP. The format is biochemical. The following applies: 1 μM inhibitor, 0.1 mM ATP, average of triplicate. How it is done:
(§1) Other protein kinases employed in Table 5, were assayed as described previously.
A structure-based sequence alignment of known kinase structures was obtained from, which was used to validate the sequence-based sequence alignment (Table 5).

A further assay has as its target T2, CHK1 (Homo sapiens, UniProt O14757).
T2 sequence (O14757 1-476): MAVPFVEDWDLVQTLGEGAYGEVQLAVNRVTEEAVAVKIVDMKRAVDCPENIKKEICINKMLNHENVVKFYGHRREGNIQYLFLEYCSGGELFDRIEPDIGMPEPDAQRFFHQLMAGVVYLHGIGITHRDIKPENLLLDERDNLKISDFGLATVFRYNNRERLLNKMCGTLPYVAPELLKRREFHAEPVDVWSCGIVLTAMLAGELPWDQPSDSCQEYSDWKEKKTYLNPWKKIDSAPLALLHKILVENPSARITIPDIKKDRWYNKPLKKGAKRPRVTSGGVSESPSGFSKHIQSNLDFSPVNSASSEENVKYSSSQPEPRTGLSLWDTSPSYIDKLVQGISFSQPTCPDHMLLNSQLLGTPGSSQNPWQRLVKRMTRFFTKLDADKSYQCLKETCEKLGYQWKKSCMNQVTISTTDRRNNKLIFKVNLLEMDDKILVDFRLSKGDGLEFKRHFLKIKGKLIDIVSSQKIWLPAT
Nature of the assay: Kinase panel assay, CHK1. It is filed as biochemical. The settings on record: 1 μM inhibitor, 0.1 mM ATP, average of triplicate.

In another assay the test system is AMPK. Nature of the assay: Kinase panel assay, AMPK. The format is biochemical. The following applies: 1 μM inhibitor, 0.1 mM ATP, average of triplicate. How it is done: as §1
For a further assay, the target named is PKBΔPH (Homo sapiens, UniProt P31749). Nature of the assay: biochemical. The following applies: read-out: percentage of kinase activity compared to control incubations, PKBΔPH. The protocol: as §1
The next assay addresses ROCK-II (Homo sapiens, UniProt O75116). Nature of the assay: Kinase panel assay, ROCK-II. The following applies: 1 μM inhibitor, 0.1 mM ATP, average of triplicate. The format is biochemical.
For a further assay, the target named is MSK1 (Homo sapiens, UniProt O75582). Nature of the assay: Kinase panel assay, MSK1. It is filed as biochemical. The settings on record: 1 μM inhibitor, 0.1 mM ATP, average of triplicate.
In a further assay the target is MKK1 (Homo sapiens, UniProt Q02750). Nature of the assay: Kinase panel assay, MKK1. It is filed as biochemical. The settings on record: 1 μM inhibitor, 0.1 mM ATP, average of triplicate.
The next assay concerns the target CSK (Homo sapiens, UniProt P41240). Nature of the assay: Kinase panel assay, CSK. The following applies: 1 μM inhibitor, 0.1 mM ATP, average of triplicate. It is filed as biochemical.
The target of the next assay is SAPK4/p38δ (Homo sapiens, UniProt O15264). Nature of the assay: Kinase panel assay, SAPK4/p38δ. It is filed as biochemical. The following applies: 1 μM inhibitor, 0.1 mM ATP, average of triplicate.
The target in the next assay is PRAK (Homo sapiens, UniProt Q8IW41). Nature of the assay: Kinase panel assay, PRAK. It is filed as biochemical. The settings on record: 1 μM inhibitor, 0.1 mM ATP, average of triplicate.
The target in a further assay is MAPKAP-K1a (Homo sapiens, UniProt Q15418). Nature of the assay: Kinase panel assay, MAPKAP-K1a. It is filed as biochemical. The following applies: 1 μM inhibitor, 0.1 mM ATP, average of triplicate.
Another assay has as its target SGK1 (Homo sapiens, UniProt O00141). Nature of the assay: Kinase panel assay, SGK1. It is filed as biochemical. The settings on record: 1 μM inhibitor, 0.1 mM ATP, average of triplicate.
Another assay has as its target JNKSAPK1c (Homo sapiens, UniProt P45983). Nature of the assay: Kinase panel assay, JNKSAPK1c. The format is biochemical. The following applies: 1 μM inhibitor, 0.1 mM ATP, average of triplicate.
The target in the next assay is SAPK2α/p38 (Homo sapiens, UniProt Q16539). Nature of the assay: Kinase panel assay, SAPK2α/p38. It is filed as biochemical. The following applies: 1 μM inhibitor, 0.1 mM ATP, average of triplicate.
The target of the next assay is SAPK2β/p38β2 (Homo sapiens, UniProt Q15759). Nature of the assay: Kinase panel assay, SAPK2β/p38β2. It is filed as biochemical. The settings on record: 1 μM inhibitor, 0.1 mM ATP, average of triplicate.
The target of another assay is CK2 (Homo sapiens, UniProt P68400). Nature of the assay: Kinase panel assay, CK2. The format is biochemical. The settings on record: 1 μM inhibitor, 0.1 mM ATP, average of triplicate.
The test system of another assay is CK1. Nature of the assay: Kinase panel assay, CK1. The format is biochemical. The following applies: 1 μM inhibitor, 0.1 mM ATP, average of triplicate.
A further assay concerns the target NEK6 (Homo sapiens, UniProt Q9HC98). Nature of the assay: Kinase panel assay, NEK6. It is filed as biochemical. The following applies: 1 μM inhibitor, 0.1 mM ATP, average of triplicate.
For assay [7], the target named is T3, wild type PDK1 fused through its N-terminus to glutathione S-transferase (GST-PDK1) (human, UniProt O15530 1-556).
T3 sequence: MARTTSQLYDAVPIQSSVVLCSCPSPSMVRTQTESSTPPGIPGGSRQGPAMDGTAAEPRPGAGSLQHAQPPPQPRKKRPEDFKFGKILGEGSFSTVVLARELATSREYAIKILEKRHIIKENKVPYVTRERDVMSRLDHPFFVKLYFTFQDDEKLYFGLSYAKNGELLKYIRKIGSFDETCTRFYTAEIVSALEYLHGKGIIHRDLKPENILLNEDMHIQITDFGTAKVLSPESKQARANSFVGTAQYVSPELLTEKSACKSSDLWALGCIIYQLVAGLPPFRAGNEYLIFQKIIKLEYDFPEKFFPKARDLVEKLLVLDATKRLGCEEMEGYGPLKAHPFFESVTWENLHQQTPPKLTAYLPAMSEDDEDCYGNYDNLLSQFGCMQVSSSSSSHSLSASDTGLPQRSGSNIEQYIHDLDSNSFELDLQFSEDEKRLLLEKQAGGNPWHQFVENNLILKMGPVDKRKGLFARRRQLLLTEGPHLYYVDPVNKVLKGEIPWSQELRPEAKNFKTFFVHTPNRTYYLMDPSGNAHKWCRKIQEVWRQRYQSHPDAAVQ
Nature of the assay: cell-based or functional assay.

The target in assay [8] is GST-PDK1[K76A] (human), O15530. Nature of the assay: cell-based or functional assay.
Assay [9] addresses GST-PDK1[Q150A] (human), O15530. Nature of the assay: cell-based or functional assay.
In assay [10] the target is T3, wild type PDK1 fused through its …. Nature of the assay: SPR (BiaCore), biotinylated peptide on SA chip. The protocol:
Binding was analysed in a BiaCore 3000 system (BiaCore AB, Stevenage, UK). […] 30 μl of wild type or the indicated mutant GST-PDK1 were injected at a flow rate of 30 μl/min, in buffer HBS-P (10 mM HEPES pH 7.4, 0.15M NaCl, 0.005% (by vol) polysorbate-20) supplemented with 1 mM DTT. […] Steady state binding was determined at each concentration. Dissociation of PDK1 from the phospho-peptide was monitored over a 1 min period. Regeneration of the sensor chip surface was performed with 10 μl injections of 0.05% SDS.

Where “and” joins values, the source holds several entries; their conditions need not be identical. Identical values can stand only once. Where no end group is shown, it is not given here. [ ]: non-standard residue; d: D form. pT = C[C@@H](OP(=O)(O)O)[C@H](N)C(=O)O

MSK1, sequence (O75582 whole entry): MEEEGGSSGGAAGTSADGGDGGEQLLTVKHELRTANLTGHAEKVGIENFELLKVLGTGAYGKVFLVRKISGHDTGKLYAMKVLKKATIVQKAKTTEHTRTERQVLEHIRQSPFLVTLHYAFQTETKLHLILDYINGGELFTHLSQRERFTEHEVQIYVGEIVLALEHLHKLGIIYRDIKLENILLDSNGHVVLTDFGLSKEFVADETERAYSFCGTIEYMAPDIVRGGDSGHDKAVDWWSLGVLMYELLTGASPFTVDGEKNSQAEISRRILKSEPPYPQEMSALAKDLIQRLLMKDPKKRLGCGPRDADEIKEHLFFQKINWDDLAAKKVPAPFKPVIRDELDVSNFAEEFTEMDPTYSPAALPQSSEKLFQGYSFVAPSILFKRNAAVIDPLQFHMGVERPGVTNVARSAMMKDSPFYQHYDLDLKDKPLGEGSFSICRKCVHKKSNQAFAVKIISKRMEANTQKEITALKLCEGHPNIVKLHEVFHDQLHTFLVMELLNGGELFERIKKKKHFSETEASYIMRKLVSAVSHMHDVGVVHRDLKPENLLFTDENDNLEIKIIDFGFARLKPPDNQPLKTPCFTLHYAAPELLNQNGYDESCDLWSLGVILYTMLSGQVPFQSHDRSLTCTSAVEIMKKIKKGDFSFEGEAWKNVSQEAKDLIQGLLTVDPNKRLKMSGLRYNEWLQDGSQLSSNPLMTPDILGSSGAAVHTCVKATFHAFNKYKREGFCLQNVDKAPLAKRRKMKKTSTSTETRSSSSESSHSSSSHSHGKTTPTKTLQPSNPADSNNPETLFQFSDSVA
JNKSAPK1c, sequence (P45983 whole entry): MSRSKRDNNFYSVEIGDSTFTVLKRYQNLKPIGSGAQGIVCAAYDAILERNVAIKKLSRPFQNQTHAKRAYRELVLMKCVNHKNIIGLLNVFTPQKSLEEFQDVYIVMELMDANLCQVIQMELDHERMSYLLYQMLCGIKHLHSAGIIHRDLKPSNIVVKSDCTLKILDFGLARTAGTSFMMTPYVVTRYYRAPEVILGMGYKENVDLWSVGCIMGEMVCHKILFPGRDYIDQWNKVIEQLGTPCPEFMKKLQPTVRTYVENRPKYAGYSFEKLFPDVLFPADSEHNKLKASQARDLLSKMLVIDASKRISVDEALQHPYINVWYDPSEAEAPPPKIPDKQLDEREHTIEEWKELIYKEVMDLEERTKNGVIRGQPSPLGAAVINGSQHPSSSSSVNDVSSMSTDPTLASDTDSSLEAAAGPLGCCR
MAPKAP-K1a, sequence (Q15418 whole entry, species assumed): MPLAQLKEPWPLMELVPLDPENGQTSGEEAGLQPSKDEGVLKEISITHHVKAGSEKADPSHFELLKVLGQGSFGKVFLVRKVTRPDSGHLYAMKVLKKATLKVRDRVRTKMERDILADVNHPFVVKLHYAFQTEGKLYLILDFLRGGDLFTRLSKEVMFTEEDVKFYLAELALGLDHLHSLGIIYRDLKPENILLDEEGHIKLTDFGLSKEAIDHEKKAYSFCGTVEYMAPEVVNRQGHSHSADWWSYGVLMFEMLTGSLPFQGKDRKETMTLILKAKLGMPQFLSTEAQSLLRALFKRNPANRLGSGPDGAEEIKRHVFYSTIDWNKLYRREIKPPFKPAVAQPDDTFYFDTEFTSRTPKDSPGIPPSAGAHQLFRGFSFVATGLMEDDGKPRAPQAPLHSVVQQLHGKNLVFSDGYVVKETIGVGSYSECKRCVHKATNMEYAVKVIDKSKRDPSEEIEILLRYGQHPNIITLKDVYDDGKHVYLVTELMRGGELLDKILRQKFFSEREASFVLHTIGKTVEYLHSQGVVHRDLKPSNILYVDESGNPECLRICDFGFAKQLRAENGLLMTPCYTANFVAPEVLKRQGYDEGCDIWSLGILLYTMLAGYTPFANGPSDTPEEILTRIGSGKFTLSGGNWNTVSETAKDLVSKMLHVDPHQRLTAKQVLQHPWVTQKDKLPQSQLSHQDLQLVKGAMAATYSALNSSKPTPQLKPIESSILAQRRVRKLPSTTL
PRAK, sequence (Q8IW41 whole entry, species assumed): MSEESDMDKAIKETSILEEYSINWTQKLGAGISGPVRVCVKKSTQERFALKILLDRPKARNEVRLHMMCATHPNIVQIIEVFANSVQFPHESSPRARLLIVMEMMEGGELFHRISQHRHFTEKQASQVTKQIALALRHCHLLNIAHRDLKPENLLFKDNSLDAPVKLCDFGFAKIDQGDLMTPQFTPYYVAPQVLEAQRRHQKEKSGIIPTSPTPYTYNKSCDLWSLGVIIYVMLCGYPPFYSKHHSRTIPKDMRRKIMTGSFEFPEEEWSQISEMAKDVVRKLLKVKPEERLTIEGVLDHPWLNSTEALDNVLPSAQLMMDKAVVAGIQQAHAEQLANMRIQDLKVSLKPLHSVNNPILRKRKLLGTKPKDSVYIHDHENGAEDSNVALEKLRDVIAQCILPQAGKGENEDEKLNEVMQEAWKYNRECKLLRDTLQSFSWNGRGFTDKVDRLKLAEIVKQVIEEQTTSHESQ
ROCK-II, sequence (O75116 whole entry, species assumed): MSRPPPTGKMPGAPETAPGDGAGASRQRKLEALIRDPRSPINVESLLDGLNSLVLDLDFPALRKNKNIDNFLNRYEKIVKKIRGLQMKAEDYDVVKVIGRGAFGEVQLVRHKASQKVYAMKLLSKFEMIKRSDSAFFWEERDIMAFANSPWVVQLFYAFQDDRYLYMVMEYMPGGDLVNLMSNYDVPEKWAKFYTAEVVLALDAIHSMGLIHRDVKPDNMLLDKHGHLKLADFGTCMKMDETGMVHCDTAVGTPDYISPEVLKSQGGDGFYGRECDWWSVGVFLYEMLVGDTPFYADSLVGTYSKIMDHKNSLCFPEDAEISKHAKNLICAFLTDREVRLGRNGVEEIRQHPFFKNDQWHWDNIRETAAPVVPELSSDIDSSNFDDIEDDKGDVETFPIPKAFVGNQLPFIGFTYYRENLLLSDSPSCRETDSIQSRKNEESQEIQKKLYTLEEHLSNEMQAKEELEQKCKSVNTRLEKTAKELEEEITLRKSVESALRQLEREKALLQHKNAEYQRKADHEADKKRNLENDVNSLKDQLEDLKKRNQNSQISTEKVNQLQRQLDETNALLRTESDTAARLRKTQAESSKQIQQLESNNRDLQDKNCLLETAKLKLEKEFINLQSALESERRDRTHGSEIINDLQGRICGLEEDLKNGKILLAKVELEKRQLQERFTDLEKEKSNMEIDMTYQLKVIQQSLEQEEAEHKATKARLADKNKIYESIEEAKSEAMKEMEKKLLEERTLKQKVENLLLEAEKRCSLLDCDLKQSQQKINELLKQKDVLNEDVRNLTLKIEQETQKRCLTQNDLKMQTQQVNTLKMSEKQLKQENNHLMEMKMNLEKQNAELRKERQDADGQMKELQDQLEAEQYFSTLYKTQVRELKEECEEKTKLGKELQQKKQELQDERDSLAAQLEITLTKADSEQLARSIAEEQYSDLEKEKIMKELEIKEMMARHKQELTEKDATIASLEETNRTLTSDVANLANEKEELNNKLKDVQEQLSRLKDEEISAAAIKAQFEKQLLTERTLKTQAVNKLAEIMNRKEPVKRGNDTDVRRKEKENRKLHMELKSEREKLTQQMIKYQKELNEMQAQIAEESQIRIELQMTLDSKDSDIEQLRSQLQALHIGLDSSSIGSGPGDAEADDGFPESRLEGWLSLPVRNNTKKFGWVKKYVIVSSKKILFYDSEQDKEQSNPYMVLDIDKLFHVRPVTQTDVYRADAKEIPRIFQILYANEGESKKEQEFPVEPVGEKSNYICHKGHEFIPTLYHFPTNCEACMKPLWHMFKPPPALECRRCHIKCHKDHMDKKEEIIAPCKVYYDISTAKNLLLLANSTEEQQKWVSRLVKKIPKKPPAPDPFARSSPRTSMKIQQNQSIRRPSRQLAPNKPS
NEK6, sequence (Q9HC98 whole entry, species assumed, the tested form may be a part): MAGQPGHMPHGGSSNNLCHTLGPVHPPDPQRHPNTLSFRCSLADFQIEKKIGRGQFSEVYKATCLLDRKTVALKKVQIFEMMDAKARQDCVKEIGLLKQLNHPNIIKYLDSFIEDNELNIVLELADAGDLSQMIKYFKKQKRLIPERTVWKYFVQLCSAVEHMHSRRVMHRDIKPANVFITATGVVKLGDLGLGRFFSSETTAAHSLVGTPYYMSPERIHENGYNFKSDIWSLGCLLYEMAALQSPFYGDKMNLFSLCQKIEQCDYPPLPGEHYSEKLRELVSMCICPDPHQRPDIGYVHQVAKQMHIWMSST
CSK, sequence (P41240 whole entry, species assumed): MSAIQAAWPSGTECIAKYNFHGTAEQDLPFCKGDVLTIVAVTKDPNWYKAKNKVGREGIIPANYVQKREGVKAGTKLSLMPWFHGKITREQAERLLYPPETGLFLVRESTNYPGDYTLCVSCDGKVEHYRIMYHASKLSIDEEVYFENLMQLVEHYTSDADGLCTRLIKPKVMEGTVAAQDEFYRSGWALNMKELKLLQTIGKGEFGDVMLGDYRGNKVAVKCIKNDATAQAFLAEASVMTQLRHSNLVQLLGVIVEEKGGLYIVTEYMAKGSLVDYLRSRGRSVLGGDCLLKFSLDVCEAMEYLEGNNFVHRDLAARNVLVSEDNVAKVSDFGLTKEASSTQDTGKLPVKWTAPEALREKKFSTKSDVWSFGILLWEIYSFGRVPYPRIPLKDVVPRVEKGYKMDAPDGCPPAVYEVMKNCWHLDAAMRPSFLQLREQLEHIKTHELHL
CK2, sequence (P68400 whole entry): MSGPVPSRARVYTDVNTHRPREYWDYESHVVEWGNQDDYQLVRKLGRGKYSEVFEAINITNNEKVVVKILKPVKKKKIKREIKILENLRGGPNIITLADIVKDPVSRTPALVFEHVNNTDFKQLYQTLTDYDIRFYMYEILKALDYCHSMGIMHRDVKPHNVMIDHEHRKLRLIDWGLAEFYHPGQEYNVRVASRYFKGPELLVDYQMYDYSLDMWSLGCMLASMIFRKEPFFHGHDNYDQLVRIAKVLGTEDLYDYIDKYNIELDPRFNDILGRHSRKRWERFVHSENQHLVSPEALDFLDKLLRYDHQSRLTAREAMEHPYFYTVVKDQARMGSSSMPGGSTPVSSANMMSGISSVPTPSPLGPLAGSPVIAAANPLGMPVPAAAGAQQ

As for “wild type PDK1 fused through its N-terminus to glutathione S-transferase (GST-PDK1) (from UniProt O15530 1-556) (enzyme)”, the fold lower affinity than for PIFtide in assay [1] is 100 fold. The time taken for 50% dissociation in assay [2] stood at 30 s. Further, the Kd in assay [3] stood at 600 nM; in assay [4], 642 nM.

As for “GST-PDK1[T148A] (from UniProt O15530 1-556) (enzyme)”, in assay [5], the fold higher affinity than wild type PDK1 came to 10 fold. Also, the values for the Kd in assay [3] and in assay [4] were 60 nM and 64 nM, respectively. This molecule registered an RUmax in assay [6] of 435 RU.

`CN[C@@H]1C[C@H]2O[C@@](C)([C@@H]1OC)n1c3ccccc3c3c4c(c5c6ccccc6n2c5c31)C(=O)NC4` [STO, staurosporine]: the “percentage of kinase activity compared to control incubations, PDK1” value at PDK1 is recorded as 5 ± 1%. Besides, on CHK1, the “percentage of kinase activity compared to control incubations, CHK1” value is 3 ± 1%. The “percentage of kinase activity compared to control incubations, AMPK” value in the assay on AMPK stood at 0 ± 0%. Moreover, at PKBΔPH, the remaining activity at 1 µM amounted to 8 ± 2%. For the same molecule, on ROCK-II, the “percentage of kinase activity compared to control incubations, ROCK-II” value came to 9 ± 5%. Besides, the “percentage of kinase activity compared to control incubations, MSK1” value at MSK1 is 1 ± 0%; at MSK1 (listed as staurosporine), “abolished”. In addition, on MKK1, the “percentage of kinase activity compared to control incubations, MKK1” value came to 5 ± 8%. Moreover, the “percentage of kinase activity compared to control incubations, CSK” value on CSK was found to be 25 ± 8%. Besides, the “percentage of kinase activity compared to control incubations, SAPK4/p38δ” value on SAPK4/p38δ is 40 ± 5%. The “percentage of kinase activity compared to control incubations, PRAK” value on PRAK worked out at 48 ± 1%. Also, the “percentage of kinase activity compared to control incubations, MAPKAP-K1a” value on MAPKAP-K1a is listed as 18 ± 10%. For the same molecule, the “percentage of kinase activity compared to control incubations, SGK1” value at SGK1 stood at 51 ± 4%. In addition, at JNKSAPK1c, the “percentage of kinase activity compared to control incubations, JNKSAPK1c” value is given as 91 ± 3%. In addition, the “percentage of kinase activity compared to control incubations, SAPK2α/p38” value on SAPK2α/p38 was found to be 76 ± 4%. Besides, the “percentage of kinase activity compared to control incubations, SAPK2β/p38β2” value at SAPK2β/p38β2 was found to be 84 ± 11%. In addition, the “percentage of kinase activity compared to control incubations, CK2” value on CK2 was determined as 95 ± 4%. In the assay on CK1, the “percentage of kinase activity compared to control incubations, CK1” value is on record as 95 ± 11%. Besides, the “percentage of kinase activity compared to control incubations, NEK6” value on NEK6 worked out at 109 ± 2%.

For SESANQVFLGF[pT]YVAPSV (not fully specified; printed as SESANQVFLGFT*YVAPSV) [S6K-pHM, phosphopeptide comprising the hydrophobic motif of S6K1], in assay [7], the “maximal activation of PDK1 activity towards T308tide” value was found to be 5 fold. The molecule also came in with a concentration of S6K-pHM for half maximal activation, against wild type PDK1 (fold higher than wild type PDK1) in assay [8] of 3. Further, the activation of PDK1 activity towards T308tide in assay [9] was 2 fold and 3 fold.

Take SESANQVFLGFTYVAPSV (also: biotinylated in BiaCore assay, also called 56K-HM) [S6K-HM, non-phosphorylated peptide comprising the hydrophobic motif of S6K1]: the “activation of PDK1 activity towards T308tide” value in assay [7] is less than 2 fold. Moreover, the binding result in assay [10] is reported as “no binding (tested: 2-2150 nM)”.
